In general, viability refers to the share of living cells, or the viability signal relative to a control. Lower therefore signals a greater loss of cells.

The subject of data set [1] is MDA-MB-231RR xenograft tumors. Nature of the data set: Immunohistochemistry and digital pathology of xenograft tumors. The data set is classed as in vivo, Nu/Nu nude mice. The conditions noted are these: for expression of CD31 (IHC) / mitotic index (H&E staining): MDA-MB-231RR xenograft tumors; for PCNA expression (IHC, digital pathology) / VEGF expression (IHC, digital pathology) / cyclin D1 expression (IHC, digital pathology): MDA-MB-231RR xenograft tumors after treatment; for mitotic index (H&E staining): compared to the control group. The protocol:
To determine the impact of C14 and P8 drugs on tumor inhibition, angiogenic, and cell cycle markers in a xenograft model, immunohistochemical assays and digital pathological analysis were conducted. For tissue preparation, 4-µm-thick tumor sections underwent a series of preparations: i) deparaffinization in xylene, ii) antigen retrieval in a sodium citrate buffer at pH 6, iii) blocking of endogenous peroxidase activity using a 10% hydrogen peroxide solution, and iv) non-specific binding blockade for 1 h. For the antibody incubation, the tumor sections were incubated with primary antibodies: Anti-Cyclin D1 (Abcam), Anti-PCNA (Abcam), Anti-CD31 (Abcam), Anti-VEGF (Abcam) at a 1:500 dilution.
The incubation with primary antibodies occurred at room temperature overnight. Subsequently, secondary antibody incubation was conducted. Then, the sections were incubated with horseradish peroxidase (HRP)-conjugated secondary antibody for 30 minutes. Finally, visualization and staining were performed using a diaminobenzidine (DAB) detection system from Vector Laboratories, Inc. (Burlingame, CA, USA). Counterstaining was performed using hematoxylin.
For the mitotic index evaluation, hematoxylin and eosin (H&E) staining was conducted to calculate the mitotic index. From each H&E-stained tumor tissue, 10 random fields were captured at ×40 magnification, and the number of mitotic figures was counted. The average count was used to calculate the mitotic index using the following formula: Mitotic index = Number of mitoses/10.
For digital pathology analysis, the immunohistochemistry (IHC)-stained sections were digitized using an Aperio ScanScope CS2 from Leica Biosystems (Nussloch, Germany), which generated high-resolution ×20 digital images (0.45 µm/pixel). These images were analyzed using ImageScope (Aperio, San Diego, CA, USA) to quantify marker expression. Then, a quantification algorithm was developed for each tissue to assess total and nuclear protein expression. The ImageScope allowed setting thresholds for color saturation and defining upper and lower limits for intensities of weak, moderate, and strong positive pixels. Lastly, the raw data encompassed the number of positive pixels and the intensity of positive pixels, which were normalized to the number of total pixels counted in µm^2. Data were presented as total density per µm^2.

For data set [2], the system named is cyclin D1 and GSK3β in MDA-MB-231 cells. Nature of the data set: Western blotting of cyclin D1 and GSK3β. It counts as cell-based, human. The note with it: MDA-MB-231, 3 h; for reduction in cyclin D1 expression: C14 and P8 at IC50-24 (Figure 7 legend), cisplatin 100 µM, doxorubicin 0.5 µM; for reduction in GSK3β expression: IC50-24 (Figure 7 legend), densitometry. The protocol:
(§1) To determine the effect of the C14 and P8 compounds over the protein effectors of K-Ras4B, AKT, and ERK, immunoblotting assays were conducted with specific antibodies. In brief, MCF-10A, MDA-MB-231, and MDA-MB-231RR cells were plated in 100-mm culture dishes until 80% of confluents. Cell adhesion was allowed for 24 h. […] After pre-treatment, cells were stimulated with 100 ng/ml EGF for 10 minutes to promote AKT and ERK activation. Later, the whole-cell extracts were obtained by the lysis of the cells (Cytoskeleton) in the presence of proteases and phosphatase inhibitors. Subsequently, the protein extracts were incubated at 4°C for 40 minutes to be clarified by centrifugation for 10 minutes at 14,000 rpm, at 4°C. The protein concentration of each extract was determined by using the Precision Red Advanced Protein Assay Reagent (Cytoskeleton) Then, approximately 25 μg of protein extract was electrophoresed in 10% sodium dodecyl sulfate–polyacrylamide gel electrophoresis (SDS-PAGE) and transferred to polyvinylidene fluoride (PVDF) membranes (Millipore, Billerica, MA, USA). Blots were probed using the following primary antibodies: Total ERK (Cell Signaling, Danvers, MA, USA), pERK (Cell Signaling), Total AKT (Cell Signaling), pAKT (Cell Signaling), GSK3β (Cell Signaling), and cyclin D1 (Abcam) at a 1:1,000 dilution. As a control, an anti-GAPDH antibody (GeneTex, Irvine, CA, USA) was employed at a 1:100,000 dilution and γ-Tubulin (Invitrogen) 1:5,000. Densitometric analysis of blots was performed using the software ImageJ version 1.45 (National Institutes of Health, Bethesda, […], USA).
Background: A western blot detects proteins with antibodies after separation by electrophoresis.

For data set [3], the system named is cyclin D1 and GSK3β in MDA-MB-231RR cells. Nature of the data set: Western blotting of cyclin D1 and GSK3β. It counts as cell-based, human. The conditions noted are these: 3 h; for reduction in cyclin D1: C14 and P8 at IC50-24 (Figure 7 legend), cisplatin 100 µM, doxorubicin 0.5 µM; for reduction in GSK3β expression: IC50-24 (Figure 7 legend), densitometry. The protocol: as §1

In data set [4] the test system is MCF-10A cells. Nature of the data set: Clonogenic assay. It counts as cell-based, human. The conditions noted are these: 10 to 12 days, C14 and P8 at IC50-48, cisplatin 100 µM, doxorubicin 0.5 µM. The protocol: The principal aim of a clonogenic assay is to evaluate the effect of chemotherapy agents or new drugs by the measurement of their ability to arrest tumor cell division and their ability to develop new colonies after their exposure to these new drugs ([56]). Therefore, the colony formation ability of the cell lines MCF-10A, MDA-MB-231, and MDA-MB-231RR was evaluated after their exposure to the C14 and P8 compounds. In brief, breast cancer cell lines were cultured in 6-well plates (Corning), seeding 300 cells per well, and incubated at 37°C in 5% CO2 for 24 h. Compounds C14 and P8 were added at the maximum evaluated concentration IC50-48. As controls, cells without treatment and cells treated in the presence of a vehicle (DMSO at 0.66%) were employed (Sigma-Aldrich). […] After 10 days of treatment, cells were fixed with 4% PFA and stained with 0.1% crystal violet in citric acid (Sigma-Aldrich) for 15 minutes. Subsequently, the dye present in the cells was extracted using isopropanol and read at 570 nm in a Synergy-HTX microplate reader (BioTek). Each test was performed in triplicate. Data were expressed as % colonies relative to the untreated control ([56]).

The test system of another data set is Ras-GTP in MCF-10A cells. Nature of the data set: Ras activation pull-down assay (Raf-RBD). The data set is classed as cell-based, human. The note with it: 3 h pre-treatment (C14, P8 at IC50-48H), EGF 100 ng/ml 10 min. Here is the method: Subsequently, the cells were stimulated with epidermal growth factor (EGF) (100 ng/ml) for 10 minutes. Lysates (1 mg/ml) were exposed to Ras GTP-binding protein (Raf-RBD), following the manufacturer’s instructions. Experiments for each cell type and condition were repeated three times.

Data set [5] deals with MCF-10A cells. Nature of the data set: Apoptosis/necrosis assay (Annexin V–propidium iodide, flow cytometry). The data set is classed as cell-based, human. The protocol:
Apoptosis and necrosis were determined using the Apoptosis/Necrosis Detection kit (Abcam, Cambridge, UK) according to the manufacturer’s instructions. In brief, approximately 500,000 cells were seeded in 6-well plates (Corning) for 24 h. […] Cells were harvested and collected by centrifugation. All the samples were analyzed in triplicate using flow cytometry equipment FACSCalibur instrument (BD Biosciences, San Jose, CA, USA) at […] and 575-nm emission. Data analysis was performed using the FlowJo software (Tree Star Inc., Ashland, OR, USA). All experiments were performed in triplicate.
On the technique in general: Flow cytometry measures light scatter and fluorescence of single cells or particles in a stream.

Take `O=C(CN1CCN(c2cccc(Cl)c2)CC1)N[C@@H]1CCOc2ccccc21` [P8, 2-[4-(3-chlorophenyl)piperazin-1-yl]-N-[(4R)-chroman-4-yl]acetamide]: in data set [1], the “expression of CD31 (IHC)” value is on record as “decreased”; the “PCNA expression (IHC, digital pathology)” value was found to be 18 μm^2; the “VEGF expression (IHC, digital pathology)” value is 3,000 μm^2; the “cyclin D1 expression (IHC, digital pathology)” value was determined as 20 μm^2. Moreover, in data set [1], the “mitotic index (H&E staining)” value is “lower”. Also, in data set [2], the “reduction in cyclin D1 expression” value is given as 20% and the “reduction in GSK3β expression” value is 40%. In data set [3], the “reduction in cyclin D1” value was 18% and the “reduction in GSK3β expression” value was found to be 25%. In the data set on MCF-10A cells [4], the “reduction of colony growth” value came out at 48%. Besides, the “reduction in Ras-GTP” value in the data set with Ras-GTP in MCF-10A cells was “approximately 40%”.

Take `N.N.[Cl][Pt][Cl]` [Cisplatin, cisplatin, reference compound]: in data set [1], the “PCNA expression (IHC, digital pathology)” value came out at 22 μm^2; the “VEGF expression (IHC, digital pathology)” value was 3,000 μm^2; the “cyclin D1 expression (IHC, digital pathology)” value stood at 25 μm^2. Further, the “reduction in cyclin D1 expression” value in data set [2] is 10%. In addition, in data set [3], the “reduction in cyclin D1” value came out at 20%. Also, the “reduction of colony growth” value in the data set on MCF-10A cells [4] amounted to 95%. Also, the apoptosis cells entry in the data set with MCF-10A cells [5] (24 h, cisplatin 100 µM, doxorubicin 0.5 µM) is given as “over 70%”. In addition, in the data set with Ras-GTP in MCF-10A cells, the “reduction in Ras-GTP” value is “did not show an effect”.

On to `CN(CC(=O)NC1CCOc2ccccc21)Cc1cccc(Cl)c1` (stereo not drawn) [C14, 2-[(3-chlorophenyl)-methyl-methyl-amino]-N-croman-4-yl-acetamide], for which, in data set [1], the “expression of CD31 (IHC)” value is given as “decreased”; the “PCNA expression (IHC, digital pathology)” value came out at 10 μm^2; the “VEGF expression (IHC, digital pathology)” value is 100 μm^2; the “cyclin D1 expression (IHC, digital pathology)” value came out at 8 μm^2. Besides, in data set [1], the “mitotic index (H&E staining)” value is reported as “lower”. Also, in data set [2], the “reduction in cyclin D1 expression” value amounted to 20% and the “reduction in GSK3β expression” value was “did not show an effect”. In addition, in data set [3], the “reduction in cyclin D1” value is given as 40% and the “reduction in GSK3β expression” value is given as 50%. The same molecule displayed a viability in the data set on MCF-10A cells [5] (24 h at IC50-24, flow cytometry) of 91.1%. In addition, the “reduction in Ras-GTP” value in the data set with Ras-GTP in MCF-10A cells is “approximately 40%”.

The values are drawn from publication PMC10989073, “Antineoplastic effect of compounds C14 and P8 on TNBC and radioresistant TNBC cells by stabilizing the K-Ras4B^G13D/PDE6δ complex” (Frontiers in Oncology, 2024).
